Active and inactive are the calls of the source. No cut-off for these calls is given here.
Assays:
Cortical neurone = assay: Neuroprotective activity in Sprague-Dawley rat cortical neurons assessed as inhibition of amyloid beta (25 to 35 residues)-induced neurotoxicity compound pretreated at 10 to 50 uM for 2 hrs followed by addition of 10 uM amyloid beta (25 to 35 residues) for 40 hrs by MTT assay; format: functional
[1] = Neuroprotective activity in Sprague-Dawley rat cortical neurons assessed as inhibition of amyloid beta (25 to 35 residues)-induced neurotoxicity compound pretreated at 50 uM for 2 hrs followed by addition of 10 uM amyloid beta (25 to 35 residues) for 40 hrs by MTT assay; format: functional, Cortical neurone

Structure (SMILES) | inhibition (Cortical neurone) | inhibition (INH) [1]
CO[C@H](c1ccccc1)[C@@H]1[C@@H](c2ccccc2)[C@H](O)C(=O)N1C | inactive | 
CO[C@H](c1ccccc1)[C@H]1[C@H](c2ccccc2)[C@H](O)C(=O)N1C | inactive | 
CO[C@@H](c1ccccc1)[C@@H]1[C@@H](c2ccccc2)[C@H](O)C(=O)N1C |  | 22.24%

Reference: ChEMBL document CHEMBL3739332, “γ- and δ-Lactams from the Leaves of Clausena lansium” (2015)
